{"source": "patent US20200375929A1", "about": "“METHODS AND COMPOSITIONS FOR THE TREATMENT OF DISEASES ASSOCIATED WITH CANCER, INFLAMMATION, OR IMMUNE RESPONSE” (Washington University, priority 2017, published 2020)", "key": {"Regnase-1": {"test_system": "Regnase-1", "assay": "Regnase-1 protein levels in BMDMs (western blot)", "assay_type": "cell-based, mouse", "details": "unstimulated macrophages, DI", "procedure": "BMDM were prepared from 6- to 12-week-old mice as described 1 and cultured in RMPI-1640 medium supplemented with 10% fetal bovine serum (FBS), 2 mM L-glutamine, and 100 U/mL penicillin-streptomycin and mouse recombinant M-CSF ([…], Peprotech). For experiments, cells were seeded at concentration 10^6 cells/mL in tissue culture plates of various formats. […]\nCells were lysed in RIPA Lysis Buffer System (Santa Cruz) and heat-denatured at 95° C. for 5 min in reducing sample buffer (BioRad). […] Non-specific binding was blocked with 5% skim milk (or 5% BSA when phospho-proteins were analyzed), and membranes were probed with primary antibodies specific to Nrf2 (#12721), HO-1 (#70081), IκBζ (mouse specific, #93726), IκBζ(#9244), ATF3 (#D2Y5W), IRAK1 (#4504; sensitivity of IRAK1 detection diminishes upon IRAK1 K63 ubiquitination), phospho-IKK (Ser176/180, #2697), p62/SQSTM1 (#5114), phospho-eIF2α (Ser51, #9721), eIF2α (#5324) from Cell Signaling; GAPDH (sc-25778), IκBα (sc-1643), ATF3 (sc-188), SDHA (sc-166909) from Santa Cruz; NQO1 (ab28947) from Abeam, followed by incubation with anti-rabbit-HRP (1:10,000; sc-2030) or anti-mouse-HRP (1:10,000; sc-2031) from Santa Cruz and Clarity western ECL substrate (Bio-Rad). […]"}, "Ikb-ζ": {"test_system": "Ikb-ζ", "assay": "IL17A-mediated Ikb-ζ induction in HaCat cells (western blot)", "assay_type": "cell-based, human", "details": "DI 12 h at non-toxic concentrations, IL17A 100 ng/ml up to 4 h"}, "IκBζ [1]": {"test_system": "IκBζ", "assay": "IL-17A-induced IκBζ in primary human keratinocytes (western blot)", "assay_type": "cell-based", "details": "DI 12 h, IL-17A 100 ng/ml", "procedure": "(§1) Cells were lysed in RIPA Lysis Buffer System (Santa Cruz) and heat-denatured at 95° C. for 5 min in reducing sample buffer (BioRad). Proteins were separated on 4%-20% polyacrylamide gradient gels (BioRad) and transferred onto 0.45 μm pore size PVDF membranes (Millipore). Non-specific binding was blocked with 5% skim milk (or 5% BSA when phospho-proteins were analyzed), and membranes were probed with primary antibodies specific to Nrf2 (#12721), HO-1 (#70081), IκBζ (mouse specific, #93726), IκBζ(#9244), ATF3 (#D2Y5W), IRAK1 (#4504; sensitivity of IRAK1 detection diminishes upon IRAK1 K63 ubiquitination), phospho-IKK (Ser176/180, #2697), p62/SQSTM1 (#5114), phospho-eIF2α (Ser51, #9721), eIF2α (#5324) from Cell Signaling; GAPDH (sc-25778), IκBα (sc-1643), ATF3 (sc-188), SDHA (sc-166909) from Santa Cruz; NQO1 (ab28947) from Abeam, followed by incubation with anti-rabbit-HRP (1:10,000; sc-2030) or anti-mouse-HRP (1:10,000; sc-2031) from Santa Cruz and Clarity western ECL substrate (Bio-Rad). Membranes were exposed to X-Ray films (Research Products International Corp.) and developed using SRX-101A film processor (Konica Minolta). GAPDH run on the same blot was used as loading control. After scanning of original films image brightness of some blots was adjusted and bands were cropped using ImageJ. Densitometry was performed using ImageJ. […]"}, "IκBζ [2]": {"test_system": "IκBζ", "assay": "IL-17A-induced IκBζ in primary mouse keratinocytes (western blot)", "assay_type": "cell-based", "details": "DI 12 h, IL-17A 100 ng/ml", "procedure": "as §1"}, "[3]": {"test_system": "human primary keratinocytes", "assay": "Viability of primary keratinocytes (propidium iodide, flow cytometry)", "assay_type": "cell-based", "details": "DI 12 h", "procedure": "For ROS measurements, cells were treated with DI (250 μM), loaded with 10 μM CM-H2DCFDA (Invitrogen) at RT for 30 min in Hank's balanced salt solution (HBSS). After incubation, cell were rinsed with warm HBSS, harvested and directly analyzed. Mean fluorescent intensity (MFI) of living cells is shown. For Nfkbiz 3′UTR reporter analysis GFP signal was determined in live cells. For analysis of cell viability cells were stained with propidium iodide (1 μg/mL) and percentage of negative cells was plotted. Cells were acquired on CantoII or LSRII flow cytometers (Becton Dickinson), and data were analyzed with FlowJo v.9.5.2 software (Tree Star). For gating strategy see e.g., FIG. 25.\nPrimary keratinocytes were isolated from C57BL/6 WT newborn mice or human foreskins as previously described. 2×10^5 cells in 1 ml of KFSM media (Gibco cat #10725-018) [Ca2+ at 0.05 mM (mouse) and 0.09 mM (human)] were plated in 12-well tissue culture plates. After 2-3 days of cultivation, mouse or human cells were treated with DI for 12 hours and then stimulated with mouse recombinant IL-17A (100 ng/mL; cat #421-ML, R&D Systems) or human recombinant IL-17A (100 ng/mL; cat #7955-IL, R&D Systems) for 4 h or as indicated."}, "[4]": {"test_system": "IκBζ target genes (Defb4, S100a7a, Lcn2, S100a9)", "assay": "IκBζ target gene expression in IL-17A-stimulated human keratinocytes (qPCR)", "assay_type": "cell-based", "details": "DI 12 h", "procedure": "(§2) RNA from cultured cells was isolated using a Total RNA I kit (OMEGA). RNA from mouse ear skin was extracted using RNAeasy mini kit (Qiagen) after tissue disruption with sterile zirconium beads on a MagNA Lyser (Roche). Isolated RNA was reverse transcribed using AffinityScript Multi-Temp reverse transcriptase (Agilent Technologies) according to the manufacturer's protocol. Reactions were performed in 96-well plates using a SYBR Green PCR Master mix (Thermo Fisher Scientific) using a LightCycler® 96 or LightCycler® 480 (Roche Diagnostics). All assays were performed at least in duplicates, and reaction mixtures in 20 μL volumes (96-plate) or 10 μL volumes (384-plate) were processed under the following cycling conditions: initial 10 min denaturation at 95° C., followed by 40 cycles at 95° C. for 10 s, 60° C. for 1 min. Threshold cycle (CT) values for each sample were determined by automated threshold analysis. Expression levels of all mRNAs were normalized to reference gene Actb in BMDMs or to Rpl19 in mouse keratinocytes and tissue samples; to ACTB in human blood monocytes or RPLP0 in human keratinocytes. The relative increase in the expression level of a gene was normalized to the level of expression in unstimulated control cells in each experiment. IκBζ-dependent genes selected for analysis in macrophages were previously published. […]"}, "[5]": {"test_system": "IκBζ target genes (Defb4, S100a7a, Lcn2, S100a9)", "assay": "IκBζ target gene expression in IL-17A-stimulated mouse keratinocytes (qPCR)", "assay_type": "cell-based", "details": "DI 12 h, IL-17A 4 h", "procedure": "as §2"}, "HBL1 cells line (ABC)": {"test_system": "HBL1 cells line (ABC)", "assay": "DLBCL cell viability, resazurin assay, ABC subtype", "assay_type": "cell-based", "details": "HBL1, 4 days, refreshed daily; DI 125-250 μM"}}, "note": "“Also recorded” adds a separate entry of the source.", "data": [{"smiles": "C=C(CC(=O)OC)C(=O)OC", "note": "[DI, dimethyl itaconate]", "values": [{"measurement": "Regnase-1 protein", "setting": "Regnase-1", "result": "up-regulated Regnase-1"}, {"measurement": "IL17A-mediated Ikb-ζ induction", "setting": "Ikb-ζ", "result": "almost completely inhibited"}, {"measurement": "IL-17-induced IκBζ induction", "setting": "IκBζ [1]", "result": "inhibited"}, {"measurement": "IL-17-induced IκBζ induction", "setting": "IκBζ [2]", "result": "inhibited"}, {"measurement": "viability of primary keratinocytes", "setting": "[3]", "result": "not affected"}, {"measurement": "expression of IL-17A signature / IκBζ target genes", "setting": "[4]", "result": "also inhibited; also recorded: downregulated"}, {"measurement": "expression of IκBζ target genes", "setting": "[5]", "result": "downregulated"}, {"measurement": "growth / toxicity, ABC DLBCL", "setting": "HBL1 cells line (ABC)", "result": "selective toxicity towards ABC"}]}]}
